The values below come from patent US20260022142A1, “MACROCYCLIC IMMUNOMODULATORS” (Bristol-Myers Squibb Company, priority 2022, published 2026).

Bridge positions count the residues as written; N and C are the ends. Square brackets hold non-standard residues; d marks the D form. Peptide text beside a SMILES is read from it. * marks the point of attachment. ξ: configuration not given here. Phe(4-COOH) = N[C@@H](Cc1ccc(C(=O)O)cc1)C(=O)O; Bip = N[C@@H](Cc1ccc(-c2ccccc2)cc1)C(=O)O; Phe(3-Me) = Cc1cccc(C[C@H](N)C(=O)O)c1; Cha = N[C@@H](CC1CCCCC1)C(=O)O; Cit = NC(=O)NCCC[C@H](N)C(=O)O; Thr(3ξ) = CC(O)[C@H](N)C(=O)O; Dap(Me) = CNC[C@H](N)C(=O)O; Carboxymethyl = O=C(O)C*; Orn = NCCC[C@H](N)C(=O)O; Aun = NCCCCCCCCCCC(=O)O; Dab = NCC[C@H](N)C(=O)O; AEEA = NCCOCCOCC(=O)O

T1 sequence (Q15116 25-288): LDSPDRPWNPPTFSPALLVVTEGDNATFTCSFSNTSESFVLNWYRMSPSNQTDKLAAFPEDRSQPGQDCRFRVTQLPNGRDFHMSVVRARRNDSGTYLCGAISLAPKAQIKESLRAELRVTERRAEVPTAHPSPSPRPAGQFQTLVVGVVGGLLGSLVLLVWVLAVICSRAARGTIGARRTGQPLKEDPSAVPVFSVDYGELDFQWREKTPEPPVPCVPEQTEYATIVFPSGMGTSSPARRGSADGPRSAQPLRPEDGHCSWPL

This test has as its target T1, PD-1/PD-L1 interaction (PE-labeled human PD-L1-Ig binding to Jurkat cell line over-expressing human PD-1) (Homo sapiens, UniProt Q15116).
T1 construct: expressed in transfected cells; host or cells: Jurkat
Description: Jurkat-PD-1 Cell Binding High-Content Screening Assay (CBA). Type of test: cell-based. The conditions noted are these: Jurkat cell line over-expressing human PD-1; PE-labeled PD-L1-Ig 20 nM final; read-out: Jurkat hPD1-PDL1 IC50. In outline: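 Binding of fluorescent PD-L1-Ig (phycoerythrin on Ig tag, 20 nM final, 1 h) measured by high-content imaging of fixed, Hoechst-counterstained Jurkat-hPD-1 cells. Compound added 2 h at 37° C beforehand, in DMEM with 10% fetal calf serum.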
Take `CNC[C@@H]1NC(=O)CSC[C@@H](C(=O)N[C@@H](CCN)C(=O)NCCCCCCCCCCC(=O)O)NC(=O)[C@H](C(C)O)NC(=O)[C@H](C(C)C)NC(=O)[C@H](CC2CCCCC2)NC(=O)[C@H](CCN)NC(=O)[C@@H](CC(C)C)NC(=O)[C@H](CCCN)NC(=O)[C@H](CCCNC(N)=O)NC(=O)[C@H](Cc2ccc(-c3ccccc3)cc2)NC(=O)[C@H](C(C)C)NC(=O)[C@H](Cc2cccc(C)c2)NC(=O)[C@H](CC(=O)O)NC(=O)[C@H](Cc2ccc(OCC(=O)O)cc2)NC1=O` (stereo partly drawn) [Compound 3454] ({CH2CO}-[Dap(Me)]Y(Carboxymethyl)D[Phe(3-Me)]V[Bip][Cit][Orn][dL][Dab][Cha]V[Thr(3ξ)]C[Dab][Aun]-OH; thioether N-14): the IC50 (in general, the point on the concentration scale where inhibition reaches its midpoint) worked out at 16.2 nM.

In the case of `Cc1cccc(C[C@@H]2NC(=O)[C@H](CC(=O)O)NC(=O)[C@H](Cc3ccc(OCC(=O)O)cc3)NC(=O)[C@H](CC(N)=O)NC(=O)CSC[C@@H](C(=O)N[C@@H](CCN)C(=O)NCCCCCCCCCCC(=O)O)NC(=O)[C@H](C(C)O)NC(=O)[C@H](C(C)C)NC(=O)[C@H](CC3CCCCC3)NC(=O)[C@H](CCN)NC(=O)[C@@H](CC(C)C)NC(=O)[C@H](CCCN)NC(=O)[C@H](CCCNC(N)=O)NC(=O)[C@H](Cc3ccc(-c4ccccc4)cc3)NC(=O)[C@H](C(C)C)NC2=O)c1` (stereo partly drawn) [Compound 3455] ({CH2CO}-NY(Carboxymethyl)D[Phe(3-Me)]V[Bip][Cit][Orn][dL][Dab][Cha]V[Thr(3ξ)]C[Dab][Aun]-OH; thioether N-14), the half-maximal inhibitory concentration (IC50) worked out at 14.6 nM.

In the case of `Cc1cccc(C[C@@H]2NC(=O)[C@H](CC(=O)O)NC(=O)[C@H](Cc3ccc(OCC(=O)O)cc3)NC(=O)[C@H](C(C)O)NC(=O)CSC[C@@H](C(=O)N[C@@H](CCN)C(=O)NCCCCCCCCCCC(=O)O)NC(=O)[C@H](C(C)O)NC(=O)[C@H](C(C)C)NC(=O)[C@H](CC3CCCCC3)NC(=O)[C@H](CCN)NC(=O)[C@@H](CC(C)C)NC(=O)[C@H](CCCN)NC(=O)[C@H](Cc3ccc(O)cc3)NC(=O)[C@H](Cc3ccc(-c4ccccc4)cc3)NC(=O)[C@H](Cc3ccc(O)cc3)NC2=O)c1` (stereo partly drawn) [Compound 3456] ({CH2CO}-[Thr(3ξ)]Y(Carboxymethyl)D[Phe(3-Me)]Y[Bip]Y[Orn][dL][Dab][Cha]V[Thr(3ξ)]C[Dab][Aun]-OH; thioether N-14), the IC50 is 26.4 nM.

On to `Cc1cccc(C[C@@H]2NC(=O)[C@H](CC(=O)O)NC(=O)[C@H](Cc3ccc(OCC(=O)O)cc3)NC(=O)[C@H](CCCNC(=N)N)NC(=O)CSC[C@@H](C(=O)N[C@@H](CCN)C(=O)NCCCCCCCCCCC(=O)O)NC(=O)[C@H](C(C)O)NC(=O)[C@H](C(C)C)NC(=O)[C@H](CC3CCCCC3)NC(=O)[C@H](CCN)NC(=O)[C@@H](CC(C)C)NC(=O)[C@H](CCCN)NC(=O)[C@H](Cc3ccc(O)cc3)NC(=O)[C@H](Cc3ccc(-c4ccccc4)cc3)NC(=O)[C@H](C(C)C)NC2=O)c1` (stereo partly drawn) [Compound 3457] ({CH2CO}-RY(Carboxymethyl)D[Phe(3-Me)]V[Bip]Y[Orn][dL][Dab][Cha]V[Thr(3ξ)]C[Dab][Aun]-OH; thioether N-14), for which the 50% inhibitory concentration (IC50) is 37.4 nM.

With `Cc1cccc(C[C@@H]2NC(=O)[C@H](CC(=O)O)NC(=O)[C@H](Cc3ccc(OCC(=O)O)cc3)NC(=O)[C@H](C(C)O)NC(=O)CSC[C@@H](C(=O)N[C@@H](CCN)C(=O)NCCCCCCCCCCC(=O)O)NC(=O)[C@H](C(C)O)NC(=O)[C@H](C(C)C)NC(=O)[C@H](CC3CCCCC3)NC(=O)[C@H](CCN)NC(=O)[C@@H](CC(C)C)NC(=O)[C@H](CCCN)NC(=O)[C@H](CCCNC(N)=O)NC(=O)[C@H](Cc3ccc(-c4ccccc4)cc3)NC(=O)[C@H](C(C)C)NC2=O)c1` (stereo partly drawn) [Compound 3458] ({CH2CO}-[Thr(3ξ)]Y(Carboxymethyl)D[Phe(3-Me)]V[Bip][Cit][Orn][dL][Dab][Cha]V[Thr(3ξ)]C[Dab][Aun]-OH; thioether N-14), the half-maximal inhibitory concentration (IC50) amounted to 18.4 nM.

On to `Cc1cccc(C[C@@H]2NC(=O)[C@H](CC(=O)O)NC(=O)[C@H](Cc3ccc(OCC(=O)O)cc3)NC(=O)[C@H](CCCNC(=N)N)NC(=O)CSC[C@@H](C(=O)NCCOCCOCC(=O)NCCCCCCCCCCC(=O)O)NC(=O)[C@H](C(C)O)NC(=O)[C@H](C(C)C)NC(=O)[C@H](CC3CCCCC3)NC(=O)[C@H](CCN)NC(=O)[C@@H](CC(C)C)NC(=O)[C@H](CCCN)NC(=O)[C@H](CCCNC(N)=O)NC(=O)[C@H](Cc3ccc(-c4ccccc4)cc3)NC(=O)[C@H](C(C)C)NC2=O)c1` (stereo partly drawn) [Compound 3459] ({CH2CO}-RY(Carboxymethyl)D[Phe(3-Me)]V[Bip][Cit][Orn][dL][Dab][Cha]V[Thr(3ξ)]C[AEEA][Aun]-OH; thioether N-14), for which the half-inhibitory concentration (IC50) was 14.2 nM.

Consider `Cc1cccc(C[C@@H]2NC(=O)[C@H](CC(=O)O)NC(=O)[C@H](Cc3ccc(OCC(=O)O)cc3)NC(=O)[C@H](C(C)O)NC(=O)CSC[C@@H](C(=O)NCCOCCOCC(=O)NCCCCCCCCCCC(=O)O)NC(=O)[C@H](C(C)O)NC(=O)[C@H](C(C)C)NC(=O)[C@H](CC3CCCCC3)NC(=O)[C@H](CCN)NC(=O)[C@@H](CC(C)C)NC(=O)[C@H](CCCN)NC(=O)[C@H](CCCNC(N)=O)NC(=O)[C@H](Cc3ccc(-c4ccccc4)cc3)NC(=O)[C@H](C(C)C)NC2=O)c1` (stereo partly drawn) [Compound 3460] ({CH2CO}-[Thr(3ξ)]Y(Carboxymethyl)D[Phe(3-Me)]V[Bip][Cit][Orn][dL][Dab][Cha]V[Thr(3ξ)]C[AEEA][Aun]-OH; thioether N-14), for which the 50% inhibitory concentration (IC50) stood at 17 nM.

As for `Cc1cccc(C[C@@H]2NC(=O)[C@H](CC(=O)O)NC(=O)[C@H](Cc3ccc(C(=O)O)cc3)NC(=O)[C@H](Cc3ccc(OCC(=O)O)cc3)NC(=O)CSC[C@@H](C(=O)N[C@@H](CCN)C(=O)NCCCCCCCCCCC(=O)O)NC(=O)[C@H](C(C)O)NC(=O)[C@H](C(C)C)NC(=O)[C@H](CC3CCCCC3)NC(=O)[C@H](CCN)NC(=O)[C@@H](CC(C)C)NC(=O)[C@H](CCCN)NC(=O)[C@H](CCCNC(N)=O)NC(=O)[C@H](Cc3ccc(-c4ccccc4)cc3)NC(=O)[C@H](CC(C)C)NC2=O)c1` (stereo partly drawn) [Compound 3463] ({CH2CO}-Y(Carboxymethyl)[Phe(4-COOH)]D[Phe(3-Me)]L[Bip][Cit][Orn][dL][Dab][Cha]V[Thr(3ξ)]C[Dab][Aun]-OH; thioether N-14), the IC50 was found to be 31.3 nM.

For `CC(=O)NCCCC[C@@H]1NC(=O)[C@H](Cc2ccc(-c3ccccc3)cc2)NC(=O)[C@H](Cc2ccccc2)NC(=O)[C@H](Cc2cccc(C)c2)NC(=O)[C@H](CC(=O)O)NC(=O)[C@H](Cc2ccc(OCC(=O)O)cc2)NC(=O)[C@H](C(C)O)NC(=O)CSC[C@@H](C(=O)N[C@@H](CCN)C(=O)NCCCCCCCCCCC(=O)O)NC(=O)[C@H](C(C)O)NC(=O)[C@H](C(C)C)NC(=O)[C@H](CC2CCCCC2)NC(=O)[C@H](CCN)NC(=O)[C@@H](CC(C)C)NC(=O)[C@H](CCCNC(N)=O)NC1=O` (stereo partly drawn) [Compound 3466] ({CH2CO}-[Thr(3ξ)]Y(Carboxymethyl)D[Phe(3-Me)]F[Bip]K(Ac)[Cit][dL][Dab][Cha]V[Thr(3ξ)]C[Dab][Aun]-OH; thioether N-14), the IC50 stood at 19.5 nM.
